Assay results reported in US8278480B2, “Salts, aqueous liquid compositions containing salts of S-(+)-abscisic acid and methods of their preparation” (Valent BioSciences Corporation, priority 2008, dated 2012).
Values joined by “and” are separate entries in the source; they are usually repeats but may differ in a detail not shown here. Equal entries are not always repeated. Structures can show the parent of a compound that is named as a salt.

Legend:
Type in all cases: in vivo, Tomato (variety: Rutgers)
[1] = system: tomato leaf transpiration; experiment: Tomato leaf transpiration inhibition after foliar spray (LI-1600 porometer); conditions: for Transpiration rate (% of control), 1 day after treatment: day 1; for Transpiration rate (% of control), 2 days after treatment: day 2; for Transpiration rate (% of control), 3 days after treatment: day 3; for Transpiration rate (% of control), 4 days after treatment: day 4; for Transpiration rate (% of control), 7 days after treatment: day 7; for ABA dose to achieve 50% inhibition of transpiration: from linear regression of 3-day average transpiration rate on log dose; for Relative potency compared to the ammonium salt composition of Comparative Example 11: reciprocal of ratio of doses for 50% transpiration inhibition
Method: (§1) Preparation of plant specimens for use in the treatment studies of the EXAMPLES that follow was carried out as follows. Tomato (variety: Rutgers) seeds were sown in an 18-cell flat filled with Promix PGX (available from Premier Horticulture Inc., Quakertown Pa.) and grown for 3 weeks to allow for germination and initial growth. Plants were then transplanted into pots (18 cm in diameter and 18 cm in height), filled with Promix BX (available from Premier Horticulture Inc., Quakertown Pa.), and grown for one or two more weeks before treatment, depending on temperature and available light. Plants received daily irrigation and weekly fertilizer (1 g/L all purpose fertilizer 20-20-20, available from The Scotts Company, Marysville, Ohio).
(§2) All treatment solutions were made up with distilled water. The (S)-(+)-abscisic acid (95% active ingredient) is available from Lomon BioTechnology Co., Ltd. (Shichuan, China). The prior art aqueous solution composition of the ammonium salt of (S)-(+)-abscisic acid as prepared in Example 11 above was used as a positive treatment control for most of the studies.
(§3) All experiments were conducted using a randomized complete block experimental design. Solutions of (S)-(+)-abscisic acid and blank treatments (plain water) were applied by spray to the aerial parts of the tomato plants at the rate of 24 mL per 6 plants. Plants were then placed in a transparent chamber with humidity controlled within the range of 40 to 60% relative humidity. Leaf transpiration rates were measured at 1, 2, 3, 4 and 7 days after treatment. Measurements were conducted using a LI-1600 Steady State Porometer (LI-Cor, Lincoln, Nebr.). Each day the transpiration rate of the plants of each treatment group was normalized to a percentage of the transpiration rate of untreated plants (plants sprayed with water only) in order to control for day-to-day variability in plant status caused by changes of environmental conditions such as light intensity and temperature. Data for each plant was also averaged over a 3-day period to balance the short term and long term effect of (S)-(+)-abscisic acid on tomato leaf transpiration as well as to reduce experimental variability.
The regression equation of each (S)-(+)-abscisic acid salt as well as abscisic acid concentrations for 50% inhibition of transpiration were calculated. The relative potency of two ABA salts is the reciprocal of the ratio of (S)-(+)-abscisic acid concentration required for 50% transpiration inhibition for each composition.

[2] = system: tomato shoot fresh weight; experiment: Tomato shoot fresh weight 7 days after treatment (growth suppression); conditions: foliar spray
Method: as §1, §2, §3
In this experiment, the fresh weights of the aerial parts of the tomato plants were also measured at the end of the experiment, 7 days after treatments were applied, in order to assess the relative growth suppressing activity of the compositions.

tomato plants = experiment: Phytotoxicity observed on treated tomato plants; conditions: tomato plants after foliar spray
Method: as §3, with “variability. It is important to note that no phytotoxicity was observed on any of the plants treated with the compositions of the present invention.” for “variability.”

tomato plant height = experiment: Tomato plant height 7 days after treatment (growth suppression); conditions: foliar spray
Method: as §1, §2
as §3, with “variability. It is important to note that no phytotoxicity was observed on any of the plants treated with the compositions of the present invention.” for “variability.”
In this experiment, the fresh weights of the aerial parts of the tomato plants and their heights were also measured at the end of the experiment, 7 days after treatments were applied, in order to assess the relative growth suppressing activity of the compositions.

[3] = (S)-(+)-abscisic acid dose 0.3 mg, foliar spray
[4] = (S)-(+)-abscisic acid dose 1 mg, foliar spray
[5] = (S)-(+)-abscisic acid dose 3 mg, foliar spray
[6] = (S)-(+)-abscisic acid dose 10 mg, foliar spray
[7] = foliar spray, 250 ppm (S)-(+)-abscisic acid (1 mg), additives as in label
[8] = 75 ppm (0.3 mg) (S)-(+)-abscisic acid
[9] = 250 ppm (1 mg) (S)-(+)-abscisic acid, additives as in label
[10] = 750 ppm (3 mg) (S)-(+)-abscisic acid
[11] = 2500 ppm (10 mg) (S)-(+)-abscisic acid

Row | SMILES | Transpiration rate (% of control), Average of 3 days after treatment [1, 3] | Transpiration rate (% of control), Average of 3 days after treatment [1, 4] | Transpiration rate (% of control), Average of 3 days after treatment [1, 5] | Transpiration rate (% of control), Average of 3 days after treatment [1, 6] | Transpiration rate (% of control), 7-Day Average [1, 7] | Transpiration rate (% of control), 1 day after treatment [1, 7] | Transpiration rate (% of control), 2 days after treatment [1, 7] | Transpiration rate (% of control), 3 days after treatment [1, 7] | Transpiration rate (% of control), 4 days after treatment [1, 7] | Transpiration rate (% of control), 7 days after treatment [1, 7] | ABA dose to achieve 50% inhibition of transpiration [1] [mg] | Relative potency compared to the ammonium salt composition of Comparative Example 11 [1] | Fresh weight (g) 7 days after treatment [2, 8] [g] | Fresh weight (g) 7 days after treatment [2, 9] [g] | Fresh weight (g) 7 days after treatment [2, 10] [g] | Fresh weight (g) 7 days after treatment [2, 11] [g] | Phytotoxicity (tomato plants) | Plant height (cm) 7 days after treatment (tomato plant height; [9]) | also measured
1 | CC1=CC(=O)CC(C)(C)[C@@]1(O)/C=C/C(C)=C\C(=O)[O-].[Rb+] [Example 1, Rubidium Salt of (S)-(+)-Abscisic Acid] | 77 % of control | 67 % of control | 54 % of control | 39 % of control | 75.9 % of control | 55.8 % of control | 68.0 % of control | 76.5 % of control | 88.2 % of control | 91.0 % of control | 4.05 | 2.4 times | 18.6 | 18.1 | 17.2 | 16.4 | without producing phytotoxicity | – | –
2 | CC1=CC(=O)CC(C)(C)[C@@]1(O)/C=C/C(C)=C\C(=O)[O-].[Cs+] [Example 2, Cesium Salt of (S)-(+)-Abscisic Acid] | 72 % of control | 57 % of control | 47 % of control | 37 % of control | 67.8 % of control | 47.1 % of control | 59.0 % of control | 63.9 % of control | 77.8 % of control | 91.1 % of control | 2.41 | 3.2 times and 2.8 times | 16.2 | 15.3 | 14.7 | 11.3 | without producing phytotoxicity | – | –
3 | CC1=CC(=O)CC(C)(C)[C@@]1(O)/C=C/C(C)=C\C(=O)O.CN(C)C(=N)N(C)C [Example 6, Tetramethylguanidinium Salt of (S)-(+)-Abscisic Acid] | 71 % of control | 61 % of control | 42 % of control | 31 % of control | 70.8 % of control and 76.2 % of control and 78.7 % of control | 51.0 % of control and 51.9 % of control and 47.8 % of control | 61.3 % of control and 64.3 % of control and 69.0 % of control | 71.2 % of control and 75.6 % of control and 84.5 % of control | 79.9 % of control and 89.9 % of control and 93.2 % of control | 90.3 % of control and 99.1 % of control and 99.0 % of control | 1.93 | – | – | – | – | – | – | 30.1 cm | –
4 | CC1=CC(=O)CC(C)(C)[C@@]1(O)/C=C/C(C)=C\C(=O)O [Example 11, Ammonium Salt of (S)-(+)-Abscisic Acid, reference compound] | 82 % of control and 80 % of control and 77 % of control and 95 % of control and 90 % of control and 81 % of control and 88 % of control | 72 % of control and 69 % of control and 65 % of control and 78 % of control and 70 % of control and 77 % of control and 71 % of control | 60 % of control and 58 % of control and 55 % of control and 67 % of control and 59 % of control and 62 % of control and 57 % of control | 50 % of control and 48 % of control and 44 % of control and 53 % of control and 51 % of control and 52 % of control and 55 % of control and 49 % of control | – | – | – | – | – | – | – | – | – | – | – | – | – | 19.8 cm and 32.1 cm | Plant height (cm) 7 days after treatment (tomato plant height; [8]): 19.9 cm; Plant height (cm) 7 days after treatment (tomato plant height; [10]): 18.6 cm; Plant height (cm) 7 days after treatment (tomato plant height; [11]): 18.6 cm; Transpiration rate (% of control), 4 Day Average ([1]; foliar spray, 250 ppm (S)-(+)-abscisic acid (1 mg), additives as in label, 4-day average): 75.4 % of control; Transpiration rate (% of control), 9-Day Average ([1]; foliar spray, 250 ppm (S)-(+)-abscisic acid (1 mg), additives as in label, 9-day average): 87.3 % of control; Transpiration rate (% of control), 9 days after treatment ([1]; foliar spray, 250 ppm (S)-(+)-abscisic acid (1 mg), additives as in label, day 9): 100.8 % of control
